Several values for one entry are separate records, joined by “and”; a condition that tells them apart may be missing. Equal entries are not always repeated.
Key:
[1] = n-octanol/water partition coefficient (log P); type: physicochemical
Method: Equal volumes (2000 mL) of n-octanol and water were thoroughly mixed using an oscillator and separated after 24 h. Yb^3+ complex (0.1 mg each) was then dissolved in 40 mL of the separated n-octanol and the solution and 40 mL of water (previously separated from the mixture) was added. The new water–octanol system was allowed to equilibrate for additional 24 h. After separation, both fractions were analyzed by UV-vis spectra. The log P values were calculated with the following equation:[80]1 log P = log(Coctanol/Cwater)where Coctanol and Cwater refer to the concentrations of Yb^3+ complexes in n-octanol and water, respectively.

[2] = NIR luminescence decay lifetime monitored at 980 nm; type: physicochemical; conditions: for Decay lifetime (τobs): bovine albumin (BSA), air-saturated, 0.1% DMSO
Method: Emission, excitation spectra and lifetime were measured on an Edinburgh Analytical Instruments FLS980 lifetime and steady state spectrometer equipped with a 450 W Xe lamp, a 60 W microsecond flash lamp, PMT R928 for the visible emission spectrum, HAMAMATSU R5509-73 PMT with a C9940-02 cooler for the NIR emission spectrum and luminescence lifetime. Excitation and emission spectra were corrected for instrumental functions (including the correction for detector, gratings etc.). All luminescence decays were exponentially tail-fitted by monoexponential functions without deconvolution for the negligible instrumental reference function in the NIR region.

[3] = NIR luminescence quantum yield, comparative method vs YbTPP(LOEt); type: physicochemical
Method: Quantum yields in solution were determined using a comparative method and the equation: Φs/Φr = (Gs/Gr) × (ηs^2/ηr^2), where the subscripts r and s denote the reference and sample respectively, Φ is the quantum yield, G is the slope from the plot of integrated emission intensity vs. absorbance, and η is the refractive index of the solvent.[79] The reference was YbTPP(LOEt) in CH2Cl2 ([…]).[53] Generally, YbTPP(LOEt) and the solution of Yb^3+ complex with 4 different concentrations were firstly prepared in the corresponding solvents. The absorbance of all the solutions at 410 nm was recorded on an Agilent 8453 UV-vis spectrometer equipped with an Agilent 89090A thermostat (±0.1 °C) and NIR emissions were recorded on an Edinburgh Analytical Instruments FLS980 lifetime and steady state spectrometer with the excitation wavelength at 410 nm under identical conditions. According to the ratio of the slope GYb – x/Gr (x = 1–5, 2c–5c), the relative quantum yield of Yb^3+ complexes could be obtained according to the equation described above. The absorbance values of all the samples and references are below 0.1 and the absorbance values undergo background correction by subtracting the average over a range from 800 to 820 nm. The integrated emission intensity integrated from 880 nm to 1150 nm was obtained by subtracting the blank (integrated emission intensity with only the pure solvent under identical conditions). The estimated error for the quantum yield measurements is 15%. For the quantum yield measured in degassed solution, solutions of Yb^3+ complexes with 4 different concentrations were degassed via 5 freeze–pump–thaw cycles. Then the measurement and calculation were the same as above.

[4] = design: method as in PMID 12895128; conditions: in CH2Cl2 ref 53; cited from earlier work
[5] = design: method as in PMID 22908122; conditions: in CHCl3 ref 59; cited from earlier work
[6] = Stability in solution and aqueous media (absorption / NIR luminescence, dark and 405 nm laser); type: physicochemical
Description: We also measured the ^2D NMR of Yb-4 in CH3OH as an example (Fig. S75 ^†) and only one single peak was observed.
Fig. 2 (a) Spectroscopic evaluation of Yb-4 photostability in water, PBS and FBS with 0.1% DMSO under irradiation of a 405 nm laser (0.2 W cm^–2) (inset: dark stability); (b) spectroscopic evaluation of Yb-4 and Yb-4c stabilities in pH = 5 PBS with 0.1% DMSO under irradiation of a 405 nm laser (0.2 W cm^–2). Emission intensity values were referenced to the emission intensity of Yb^3+ (980 nm) at 0 h.

[7] = DMSO, air-equil., monitored at 980 nm
[8] = DMSO, degassed, monitored at 980 nm
[9] = H2O with 0.1% DMSO, air-equil., monitored at 980 nm
[10] = H2O with 0.1% DMSO, degassed, monitored at 980 nm

Molecule | log Po/w [1] | τobs [2, 7] | τobs [2, 8] | τobs [2, 9] | τobs [2, 10] | ΦYb ([3]; DMSO, air-equil.) | ΦYb ([3]; DMSO, degassed) | ΦYb ([3]; H2O with 0.1% DMSO, air-equil.) | ΦYb ([3]; H2O with 0.1% DMSO, degassed) | Decay lifetime (τobs) ([2]; monitored at 980 nm) | also measured
C1=CC2=C(c3ccc(C[P+](c4ccccc4)(c4ccccc4)c4ccccc4)cc3)c3ccc4[n]3[Yb+][n]3c(ccc3=C(c3ccc(C[P+](c5ccccc5)(c5ccccc5)c5ccccc5)cc3)C3=NC(=C4c4ccc(C[P+](c5ccccc5)(c5ccccc5)c5ccccc5)cc4)C=C3)=C(c3ccc(C[P+](c4ccccc4)(c4ccccc4)c4ccccc4)cc3)C1=N2.[2H]C([2H])([2H])O[P](=O)(OC([2H])([2H])[2H])[Co-]([CH]1C=CC=C1)([P](=O)(OC([2H])([2H])[2H])OC([2H])([2H])[2H])[P](=O)(OC([2H])([2H])[2H])OC([2H])([2H])[2H].[Cl-].[Cl-].[Cl-].[Cl-] [Yb-3c] | 0.24 | 49(1) μs | 51(2) μs | 25(1) μs | 26(2) μs | 5.6(0.2) % | 5.6(0.2) % | 1.4(0.1) % | 1.4(0.1) % | – | –
O=C(O)c1ccc(C2=C3C=CC(=N3)C(c3c(F)c(F)c(F)c(F)c3F)=c3ccc4[n]3[Yb+][n]3c2ccc3C(c2c(F)c(F)c(F)c(F)c2F)=C2C=CC(=N2)C=4c2c(F)c(F)c(F)c(F)c2F)cc1.[2H]C([2H])([2H])O[P](=O)(OC([2H])([2H])[2H])[Co-]([CH]1C=CC=C1)([P](=O)(OC([2H])([2H])[2H])OC([2H])([2H])[2H])[P](=O)(OC([2H])([2H])[2H])OC([2H])([2H])[2H] [Yb-2c] | 1.26 | 52(2) μs | 52(2) μs | 38(1) μs | 41(2) μs | 6.2(0.2) % | 6.0(0.2) % | 2.5(0.2) % | 2.6(0.2) % | – | –
FC1=C(F)C2=C(c3ccc(C[P+](c4ccccc4)(c4ccccc4)c4ccccc4)cc3)c3c(F)c(F)c4[n]3[Yb+][n]3c(c(F)c(F)c3=C(c3ccc(C[P+](c5ccccc5)(c5ccccc5)c5ccccc5)cc3)C3=NC(=C4c4ccc(C[P+](c5ccccc5)(c5ccccc5)c5ccccc5)cc4)C(F)=C3F)=C(c3ccc(C[P+](c4ccccc4)(c4ccccc4)c4ccccc4)cc3)C1=N2.[2H]C([2H])([2H])O[P](=O)(OC([2H])([2H])[2H])[Co-]([CH]1C=CC=C1)([P](=O)(OC([2H])([2H])[2H])OC([2H])([2H])[2H])[P](=O)(OC([2H])([2H])[2H])OC([2H])([2H])[2H].[Cl-].[Cl-].[Cl-].[Cl-] [Yb-3] | 0.56 | 205(2) μs | 213(5) μs | 56(2) μs | 58(3) μs | 20(1) % | 21(2) % | 5.1(0.2) % | 5.2(0.3) % | 90(2) | –
5,10,15,20-tetraphenylporphyrin-Yb(III)-[(cyclopentadienyl)tris(di(ethyl)phosphito)cobaltate] [YbTPP(LOEt)] | – | – | – | – | – | – | – | – | – | – | NIR luminescence quantum yield of reference [4]: 0.024
OC[C@H]1O[C@@H](Oc2ccc(C3=C4N=C(C(F)=C4F)C(c4ccc(O[C@@H]5O[C@H](CO)[C@@H](O)[C@H](O)[C@H]5O)cc4)=c4c(F)c(F)c5[n]4[Yb+][n]4c3c(F)c(F)c4C(c3ccc(O[C@@H]4O[C@H](CO)[C@@H](O)[C@H](O)[C@H]4O)cc3)=C3N=C(C(F)=C3F)C=5c3ccc(O[C@@H]4O[C@H](CO)[C@@H](O)[C@H](O)[C@H]4O)cc3)cc2)[C@H](O)[C@@H](O)[C@@H]1O.[2H]C([2H])([2H])O[P](=O)(OC([2H])([2H])[2H])[Co-]([CH]1C=CC=C1)([P](=O)(OC([2H])([2H])[2H])OC([2H])([2H])[2H])[P](=O)(OC([2H])([2H])[2H])OC([2H])([2H])[2H] [Yb-1] | 1.32 | 161(5) μs | 165(4) μs | 95(2) μs | 96(3) μs | 16(2) % | 16(2) % | 7.6(0.4) % | 7.7(0.5) % | 100(3) | –
C1=Cc2nc1c(-c1ccccc1)c1nc(c(-c3ccccc3)c3ccc([nH]3)c(-c3ccccc3)c3ccc([nH]3)c2-c2ccccc2)C=C1 [TPP, tetraphenylporphyrin] | – | – | – | – | – | – | – | – | – | – | singlet oxygen quantum yield of reference (ΦΔ) [5]: 0.55
C[N+]1(C)CC2(F)C3=NC(=C(c4c(F)c(F)c(F)c(F)c4F)c4c(F)c(F)c5[n]4[Yb+][n]4c(c(F)c(F)c4=C3c3c(F)c(F)c(F)c(F)c3F)=C(c3c(F)c(F)c(F)c(F)c3F)C3=NC(=C5c4c(F)c(F)c(F)c(F)c4F)C(F)=C3F)C2(F)C1.[2H]C([2H])([2H])O[P](=O)(OC([2H])([2H])[2H])[Co-]([CH]1C=CC=C1)([P](=O)(OC([2H])([2H])[2H])OC([2H])([2H])[2H])[P](=O)(OC([2H])([2H])[2H])OC([2H])([2H])[2H].[I-] (centres unmarked) [Yb-4] | 1.34 | 173(4) μs | 187(8) μs | 140 μs and 140(5) μs | 142(5) μs | 17(2) % | 18(2) % | 10% and 10(1) % | 10(1) % | 145(3) | photostability ([6]; pH = 5 PBS with 0.1% DMSO, 405 nm laser 0.2 W cm^–2): photostable over 4 h; NIR luminescence under continuous irradiation ([6]; water, PBS and FBS with 0.1% DMSO, 405 nm laser, 0.2 W cm^–2): did not significantly change; dark stability ([6]; water, PBS and FBS with 0.1% DMSO, NIR luminescence): high dark stability over 48 h; τobs ([2]; ethanol, air-equil., λex = 410 nm, 980 nm): 86(4) μs; τobs ([2]; ethanol, degassed, λex = 410 nm, 980 nm): 99(2) μs; τobs ([2]; glycerol, air-equil., λex = 410 nm, 980 nm): 192(4) μs; τobs ([2]; glycerol, degassed, λex = 410 nm, 980 nm): 195(5) μs; τobs ([2]; i-propanol, air-equil., λex = 410 nm, 980 nm): 110(5) μs; τobs ([2]; i-propanol, degassed, λex = 410 nm, 980 nm): 120(3) μs; τobs ([2]; methanol, air-equil., λex = 410 nm, 980 nm): 68(2) μs; τobs ([2]; methanol, degassed, λex = 410 nm, 980 nm): 74(3) μs; τobs ([2]; t-butanol, air-equil., λex = 410 nm, 980 nm): 117(4) μs; τobs ([2]; t-butanol, degassed, λex = 410 nm, 980 nm): 127(3) μs; ΦYb and τobs in H2O relative to Yb-4c ([3]; H2O, air-saturated): 4 fold
C[N+]1(C)CC2C3=NC(=C(c4c(F)c(F)c(F)c(F)c4F)c4ccc5[n]4[Yb+][n]4c(ccc4=C3c3c(F)c(F)c(F)c(F)c3F)=C(c3c(F)c(F)c(F)c(F)c3F)C3=NC(=C5c4c(F)c(F)c(F)c(F)c4F)C=C3)C2C1.[2H]C([2H])([2H])O[P](=O)(OC([2H])([2H])[2H])[Co-]([CH]1C=CC=C1)([P](=O)(OC([2H])([2H])[2H])OC([2H])([2H])[2H])[P](=O)(OC([2H])([2H])[2H])OC([2H])([2H])[2H].[I-] (centres unmarked) [Yb-4c] | 1.33 | 49(2) μs | 50(2) μs | 35 μs and 35(1) μs | 38(2) μs | 5.4(0.2) % | 5.5(0.2) % | 2.3% and 2.3(0.2) % | 2.4(0.1) % | – | photobleaching ([6]; pH = 5 PBS with 0.1% DMSO, 405 nm laser 0.2 W cm^–2, 4 h): 55%

— publication PMC5939605, “Highly luminescent, biocompatible ytterbium(III) complexes as near-infrared fluorophores for living cell imaging” (Chemical Science, 2018)
